ChEMBL document CHEMBL5338728, “Advancing Strategies for Proteolysis-Targeting Chimera Design” (J Med Chem, 2023)

Legend:
[1] = target: T1, Protein cereblon/Bromodomain-containing protein 4 (Homo sapiens, UniProt O60885+Q96SW2); assay: Protac activity at CRBN/BRD4 in HEK293 cells assessed as protein degradation by measuring maximal efficacy relative to control; assay type: cell-based
[2] = target: T2, von Hippel-Lindau disease tumor suppressor/SWI/SNF-related matrix-associated actin-dependent regulator of chromatin subfamily A member 2 (Homo sapiens, UniProt P51531+P40337); assay: Protac activity at VHL/SMARCA2 in human RKO cells assessed as protein degradation incubated for 18 hrs by capillary electrophoresis analysis; assay type: cell-based
Target sequence in this assay (P51531 whole entry): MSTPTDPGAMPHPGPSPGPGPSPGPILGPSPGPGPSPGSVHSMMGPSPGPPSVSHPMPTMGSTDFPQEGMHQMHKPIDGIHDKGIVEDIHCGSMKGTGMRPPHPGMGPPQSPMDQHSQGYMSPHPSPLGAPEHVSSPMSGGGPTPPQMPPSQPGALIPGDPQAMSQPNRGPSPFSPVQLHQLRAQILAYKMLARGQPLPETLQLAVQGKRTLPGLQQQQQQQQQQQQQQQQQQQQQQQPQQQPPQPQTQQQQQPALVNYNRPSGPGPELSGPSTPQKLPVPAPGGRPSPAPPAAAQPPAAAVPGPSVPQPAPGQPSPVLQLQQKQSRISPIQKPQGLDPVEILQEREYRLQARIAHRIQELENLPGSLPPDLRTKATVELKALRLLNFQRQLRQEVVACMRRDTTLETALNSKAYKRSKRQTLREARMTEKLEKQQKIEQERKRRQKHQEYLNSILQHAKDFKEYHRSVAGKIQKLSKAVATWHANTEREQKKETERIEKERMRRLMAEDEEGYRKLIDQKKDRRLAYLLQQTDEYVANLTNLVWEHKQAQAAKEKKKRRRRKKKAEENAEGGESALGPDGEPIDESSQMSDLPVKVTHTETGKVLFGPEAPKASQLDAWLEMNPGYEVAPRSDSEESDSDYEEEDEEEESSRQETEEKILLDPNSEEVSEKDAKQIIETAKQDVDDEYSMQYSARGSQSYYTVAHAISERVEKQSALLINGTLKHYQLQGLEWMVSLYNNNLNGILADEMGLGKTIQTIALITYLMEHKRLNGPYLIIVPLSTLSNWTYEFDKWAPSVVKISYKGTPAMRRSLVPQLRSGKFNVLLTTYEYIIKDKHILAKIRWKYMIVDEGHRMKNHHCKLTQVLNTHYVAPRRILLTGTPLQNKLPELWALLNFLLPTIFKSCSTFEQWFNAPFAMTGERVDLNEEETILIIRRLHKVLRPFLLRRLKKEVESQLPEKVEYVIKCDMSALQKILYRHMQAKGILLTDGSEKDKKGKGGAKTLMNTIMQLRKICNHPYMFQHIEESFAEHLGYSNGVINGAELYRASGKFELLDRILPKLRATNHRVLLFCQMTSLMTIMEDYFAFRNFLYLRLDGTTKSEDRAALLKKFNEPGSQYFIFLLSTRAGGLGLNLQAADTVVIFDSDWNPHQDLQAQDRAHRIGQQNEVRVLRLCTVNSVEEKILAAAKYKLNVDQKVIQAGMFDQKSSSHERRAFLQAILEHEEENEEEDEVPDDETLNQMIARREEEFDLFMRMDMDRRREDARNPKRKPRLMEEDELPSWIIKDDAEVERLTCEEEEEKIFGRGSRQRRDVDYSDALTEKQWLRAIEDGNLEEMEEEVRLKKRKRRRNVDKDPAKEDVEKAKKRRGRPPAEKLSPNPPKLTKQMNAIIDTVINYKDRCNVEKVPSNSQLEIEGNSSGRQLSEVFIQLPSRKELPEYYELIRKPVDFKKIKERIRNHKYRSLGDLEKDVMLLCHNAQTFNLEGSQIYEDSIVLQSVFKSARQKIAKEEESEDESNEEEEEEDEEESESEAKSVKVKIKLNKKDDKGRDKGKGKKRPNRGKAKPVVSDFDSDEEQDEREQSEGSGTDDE
Target sequence in this assay (P40337 whole entry): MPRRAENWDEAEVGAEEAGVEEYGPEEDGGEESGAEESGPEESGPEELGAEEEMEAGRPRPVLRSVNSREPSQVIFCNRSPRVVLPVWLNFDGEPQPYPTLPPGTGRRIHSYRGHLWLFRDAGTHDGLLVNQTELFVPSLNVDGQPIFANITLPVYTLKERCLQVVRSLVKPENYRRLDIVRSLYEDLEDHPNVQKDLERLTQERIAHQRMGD

[3] = Oral bioavailability in mouse at 30 mg/kg; assay type: ADME, organism-based; conditions: in vivo
[4] = target: T3, Protein fem-1 homolog B/Bromodomain-containing protein 4 (Homo sapiens, UniProt O60885+Q9UK73); assay: Protac activity at FEM1B/BRD4 in HEK293T cells assessed as induction of protein degradation by measuring maximal efficacy relative to control; assay type: cell-based
[5] = target: T3, Protein fem-1 homolog B/Bromodomain-containing protein 4; assay: Protac activity at FEM1B/BRD4 in HEK293T cells assessed as degradation of BRD4; assay type: cell-based
[6] = target: T1, Protein cereblon/Bromodomain-containing protein 4; assay: Protac activity at CRBN/BRD4 in HEK293T cells assessed as protein degradation by immunoblot analysis; assay type: cell-based
[7] = target: BRD4/E3 ubiquitin-protein ligase Mdm2 (Homo sapiens) (UniProt Q00987+O60885); assay: Protac activity at MDM2/BRD4 in human HCT-116 cells assessed as induction of protein degradation by measuring maximal efficacy relative to control; assay type: cell-based
[8] = target: von Hippel-Lindau disease tumor suppressor/Apoptosis regulator Bcl-2 (Homo sapiens, UniProt P10415+P40337); assay: Protac activity at VHL/BCL-2 in human HEK293T cells assessed as protein degradation; assay type: cell-based
[9] = target: von Hippel-Lindau disease tumor suppressor/Bcl-2-like protein 1 (Homo sapiens, UniProt Q07817+P40337); assay: Protac activity at VHL/BCL-xL in human HEK293T cells assessed as protein degradation; assay type: cell-based
[10] = test system: von Hippel-Lindau disease tumor suppressor/Leucine-rich repeat serine/threonine-protein kinase 2 (Mus musculus), Q5S006+P40338 [G2019S]; assay: Protac activity at VHL/LRRK2 G2019S mutant in mouse MEF cells assessed as protein degradation at 33 nM after 4 hrs by Western blot analysis relative to control; assay type: cell-based
[11] = target: T1, Protein cereblon/Bromodomain-containing protein 4; assay: Protac activity at CRBN/BRD4 in human 22Rv1 cells assessed as degradation of BRD4; assay type: cell-based
[12] = target: T4, Protein cereblon/Myc proto-oncogene protein (Homo sapiens, UniProt P01106+Q96SW2); assay: PROTAC activity at MYC/CRBN in human HCT-116 cells assessed as degradation; assay type: cell-based
[13] = target: T4, Protein cereblon/Myc proto-oncogene protein; assay: PROTAC activity at MYC/CRBN in human PSN1 cells assessed as degradation; assay type: cell-based
[14] = target: T5, von Hippel-Lindau disease tumor suppressor/Leucine-rich repeat serine/threonine-protein kinase 2 (Mus musculus) (UniProt Q5S006+P40338); assay: Protac activity at VHL/wild type LRRK2 in mouse MEF cells assessed as induction of protein degradation by measuring maximal efficacy after 4 hrs by Western blot analysis relative to control; assay type: cell-based
[15] = Cmax in C57BL/6 mouse at 30 mg/kg, ip; assay type: ADME, organism-based; design: dose 30 mg/kg, route ip; conditions: in vivo
[16] = target: von Hippel-Lindau disease tumor suppressor/Leucine-rich repeat serine/threonine-protein kinase 2 (Mus musculus, UniProt Q5S006+P40338, G2019S); assay: Protac activity at VHL/LRRK2 G2019S mutant in mouse MEF cells assessed as protein degradation after 4 hrs by Western blot analysis; assay type: cell-based
[17] = test system: von Hippel-Lindau disease tumor suppressor/Leucine-rich repeat serine/threonine-protein kinase 2 (Mus musculus), Q5S006+P40338 [G2019S]; assay: Protac activity at VHL/LRRK2 G2019S mutant in mouse MEF cells assessed as protein degradation at 1 uM after 4 hrs by Western blot analysis relative to control; assay type: cell-based
[18] = target: von Hippel-Lindau disease tumor suppressor/Leucine-rich repeat serine/threonine-protein kinase 2 (Mus musculus, UniProt Q5S006+P40338); assay: Protac activity at VHL/wild type LRRK2 in mouse MEF cells assessed as protein degradation after 4 hrs by Western blot analysis; assay type: cell-based
[19] = Tmax in C57BL/6 mouse at 30 mg/kg, po; assay type: ADME, organism-based; conditions: in vivo
[20] = target: T5, von Hippel-Lindau disease tumor suppressor/Leucine-rich repeat serine/threonine-protein kinase 2 (Mus musculus); assay: Protac activity at VHL/wild type LRRK2 in mouse MEF cells assessed as protein degradation at 33 nM after 4 hrs by Western blot analysis relative to control; assay type: cell-based
[21] = Tmax in C57BL/6 mouse at 30 mg/kg, ip; assay type: ADME, organism-based; conditions: in vivo
[22] = Cmax in C57BL/6 mouse at 30 mg/kg, po; assay type: ADME, organism-based; design: dose 30 mg/kg, route po; conditions: in vivo
[23] = test system: von Hippel-Lindau disease tumor suppressor/Leucine-rich repeat serine/threonine-protein kinase 2 (Mus musculus), Q5S006+P40338 [G2019S]; assay: Protac activity at VHL/LRRK2 G2019S mutant in mouse MEF cells assessed as induction of protein degradation by measuring maximal efficacy after 4 hrs by Western blot analysis relative to control; assay type: cell-based
[24] = Oral bioavailability in C57BL/6 mouse at 30 mg/kg; assay type: ADME, organism-based; conditions: in vivo
[25] = target: Protein cereblon/Tyrosine-protein kinase BTK (Homo sapiens) (UniProt Q06187+Q96SW2); assay: Protac activity at CRBN/BTK in human NAMALVA cells assessed as protein degradation by measuring maximal efficacy after 24 hrs by Western blot analysis relative to control; assay type: cell-based
[26] = target: T6, von Hippel-Lindau disease tumor suppressor/Fibroblast growth factor receptor 1 (Homo sapiens, UniProt P11362+P40337); assay: Protac activity at VHL/FGFR1 in human CC-LP-1 cells assessed as protein degradation by measuring maximal efficacy relative to control; assay type: cell-based
[27] = target: T6, von Hippel-Lindau disease tumor suppressor/Fibroblast growth factor receptor 1; assay: Protac activity at VHL/FGFR1 in human CC-LP-1 cells assessed as protein degradation; assay type: cell-based
[28] = target: E3 ubiquitin-protein ligase XIAP/Tyrosine-protein kinase BTK (Homo sapiens, UniProt P98170+Q06187); assay: Protac activity at IAP/BTK in human THP-1 cells assessed as protein degradation; assay type: cell-based
[29] = target: von Hippel-Lindau disease tumor suppressor/ALK tyrosine kinase receptor (Homo sapiens, UniProt Q9UM73+P40337); assay: Protac activity at VHL/ALK in human SR cells assessed as protein degradation
[30] = target: T7, Protein polybromo-1/von Hippel-Lindau disease tumor suppressor (Homo sapiens, UniProt Q86U86+P40337); assay: Protac activity at VHL/PBRM1 in human NCI-H1568 cells assessed as protein degradation; assay type: cell-based
[31] = target: T7, Protein polybromo-1/von Hippel-Lindau disease tumor suppressor; assay: Protac activity at VHL/PBRM1 in human MV4-11 cells assessed as protein degradation; assay type: cell-based
[32] = target: T2, von Hippel-Lindau disease tumor suppressor/SWI/SNF-related matrix-associated actin-dependent regulator of chromatin subfamily A member 2; assay: Protac activity at VHL/SMARCA2 in human NCI-H1568 cells assessed as protein degradation; assay type: cell-based
Target sequence in this assay (P51531 whole entry): as the sequence (P51531 whole entry) above
Target sequence in this assay (P40337 whole entry): as the sequence (P40337 whole entry) above

[33] = target: T2, von Hippel-Lindau disease tumor suppressor/SWI/SNF-related matrix-associated actin-dependent regulator of chromatin subfamily A member 2; assay: Protac activity at VHL/SMARCA2 in human RKO cells assessed as induction of protein degradation by measuring maximal efficacy incubated for 18 hrs by capillary electrophoresis analysis relative to control; assay type: cell-based

T1 sequence (Q96SW2 whole entry, looked up, other chains not shown): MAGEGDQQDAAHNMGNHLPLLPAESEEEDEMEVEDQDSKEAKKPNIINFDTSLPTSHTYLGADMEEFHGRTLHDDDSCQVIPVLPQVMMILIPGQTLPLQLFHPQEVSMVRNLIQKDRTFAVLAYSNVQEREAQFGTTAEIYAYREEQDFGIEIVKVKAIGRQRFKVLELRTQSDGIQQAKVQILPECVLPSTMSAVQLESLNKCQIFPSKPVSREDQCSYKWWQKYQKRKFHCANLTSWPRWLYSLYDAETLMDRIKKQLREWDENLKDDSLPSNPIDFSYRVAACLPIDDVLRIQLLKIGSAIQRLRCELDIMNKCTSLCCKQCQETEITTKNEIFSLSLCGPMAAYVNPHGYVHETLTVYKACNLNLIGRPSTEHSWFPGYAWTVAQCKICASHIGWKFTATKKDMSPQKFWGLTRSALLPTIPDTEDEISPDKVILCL
T5 sequence (P40338 whole entry, looked up): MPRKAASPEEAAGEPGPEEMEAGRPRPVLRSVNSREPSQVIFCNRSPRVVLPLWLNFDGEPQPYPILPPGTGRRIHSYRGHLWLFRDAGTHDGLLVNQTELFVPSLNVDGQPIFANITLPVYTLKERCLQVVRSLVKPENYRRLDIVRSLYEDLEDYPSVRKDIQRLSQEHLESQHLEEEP
T5 sequence (Q5S006 whole entry, looked up): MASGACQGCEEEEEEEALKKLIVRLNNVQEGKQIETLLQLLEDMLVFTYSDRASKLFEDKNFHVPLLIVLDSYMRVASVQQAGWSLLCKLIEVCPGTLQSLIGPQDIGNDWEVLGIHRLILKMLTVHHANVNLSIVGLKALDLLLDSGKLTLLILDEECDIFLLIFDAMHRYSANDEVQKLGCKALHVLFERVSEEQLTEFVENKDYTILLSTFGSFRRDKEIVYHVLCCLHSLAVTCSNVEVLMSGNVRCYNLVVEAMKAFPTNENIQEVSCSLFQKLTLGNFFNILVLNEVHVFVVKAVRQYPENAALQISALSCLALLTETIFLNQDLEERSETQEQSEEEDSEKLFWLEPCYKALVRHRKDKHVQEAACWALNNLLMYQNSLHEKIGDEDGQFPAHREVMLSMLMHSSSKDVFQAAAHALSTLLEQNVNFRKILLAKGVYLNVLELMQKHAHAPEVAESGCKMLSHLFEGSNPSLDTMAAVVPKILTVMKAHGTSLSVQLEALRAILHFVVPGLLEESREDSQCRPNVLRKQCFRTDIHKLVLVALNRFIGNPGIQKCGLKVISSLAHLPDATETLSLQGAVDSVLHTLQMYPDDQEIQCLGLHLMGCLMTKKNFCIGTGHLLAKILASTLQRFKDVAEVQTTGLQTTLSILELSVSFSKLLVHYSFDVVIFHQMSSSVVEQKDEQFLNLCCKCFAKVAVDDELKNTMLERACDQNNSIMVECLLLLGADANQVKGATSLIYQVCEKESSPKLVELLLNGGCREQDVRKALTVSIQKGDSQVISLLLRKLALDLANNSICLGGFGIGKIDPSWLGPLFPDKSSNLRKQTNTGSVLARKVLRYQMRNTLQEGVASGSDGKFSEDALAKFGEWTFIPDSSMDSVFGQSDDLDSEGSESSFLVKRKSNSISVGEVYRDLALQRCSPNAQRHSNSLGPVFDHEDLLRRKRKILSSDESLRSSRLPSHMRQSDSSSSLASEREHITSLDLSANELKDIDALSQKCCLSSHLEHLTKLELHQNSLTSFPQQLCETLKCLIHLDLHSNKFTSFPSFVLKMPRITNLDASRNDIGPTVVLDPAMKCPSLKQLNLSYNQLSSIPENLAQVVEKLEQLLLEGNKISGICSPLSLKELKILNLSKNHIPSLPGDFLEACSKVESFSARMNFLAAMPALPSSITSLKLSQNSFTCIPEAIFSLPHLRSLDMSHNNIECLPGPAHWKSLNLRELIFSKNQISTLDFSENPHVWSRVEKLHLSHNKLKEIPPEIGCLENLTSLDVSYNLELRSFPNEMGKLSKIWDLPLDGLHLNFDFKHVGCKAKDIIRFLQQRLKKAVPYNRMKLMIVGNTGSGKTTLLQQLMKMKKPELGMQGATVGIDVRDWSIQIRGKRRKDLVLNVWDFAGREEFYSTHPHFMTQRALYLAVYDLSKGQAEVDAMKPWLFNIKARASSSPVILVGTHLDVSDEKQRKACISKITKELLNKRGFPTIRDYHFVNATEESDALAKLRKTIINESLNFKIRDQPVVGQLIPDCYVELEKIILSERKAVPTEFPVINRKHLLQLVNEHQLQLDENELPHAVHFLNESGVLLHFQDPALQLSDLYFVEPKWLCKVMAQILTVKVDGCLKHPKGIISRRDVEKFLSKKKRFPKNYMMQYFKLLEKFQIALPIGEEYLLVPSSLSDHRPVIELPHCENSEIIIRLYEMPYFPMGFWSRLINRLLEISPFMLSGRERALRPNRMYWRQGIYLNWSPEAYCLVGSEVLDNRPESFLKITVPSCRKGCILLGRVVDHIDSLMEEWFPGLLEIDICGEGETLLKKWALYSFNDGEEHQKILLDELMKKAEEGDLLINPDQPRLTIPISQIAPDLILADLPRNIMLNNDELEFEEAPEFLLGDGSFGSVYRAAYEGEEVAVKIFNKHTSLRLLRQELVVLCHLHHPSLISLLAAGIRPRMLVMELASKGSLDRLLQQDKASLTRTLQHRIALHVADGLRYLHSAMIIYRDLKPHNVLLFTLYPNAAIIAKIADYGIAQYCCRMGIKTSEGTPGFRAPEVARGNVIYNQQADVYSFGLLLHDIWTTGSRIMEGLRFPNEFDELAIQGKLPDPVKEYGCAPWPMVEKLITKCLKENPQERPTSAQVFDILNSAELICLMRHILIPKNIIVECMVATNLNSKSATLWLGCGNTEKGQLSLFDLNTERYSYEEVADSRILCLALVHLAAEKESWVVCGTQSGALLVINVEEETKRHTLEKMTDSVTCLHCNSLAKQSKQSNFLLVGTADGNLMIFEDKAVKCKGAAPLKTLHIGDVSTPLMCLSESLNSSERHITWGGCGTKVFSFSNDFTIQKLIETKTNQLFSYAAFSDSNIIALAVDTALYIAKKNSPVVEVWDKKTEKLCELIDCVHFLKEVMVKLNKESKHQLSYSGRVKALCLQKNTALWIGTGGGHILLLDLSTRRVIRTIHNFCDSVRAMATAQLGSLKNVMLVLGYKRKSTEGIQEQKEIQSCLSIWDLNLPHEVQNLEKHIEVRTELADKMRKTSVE

## Cc1sc2c(c1C)C(c1ccc(Cl)cc1)=N[C@@H](CC(=O)NCCCCNC(=O)COc1cccc3c1C(=O)N(C1CCC(=O)NC1=O)C3=O)c1nnc(C)n1-2 (some centres not stated)
[1]
  Emax: 93%

## Cc1ncsc1-c1ccc([C@H](CC[C@H](C)CCN2CCC(c3ccc4c(c3)n(C3CCCC3)c3nc(=O)c5c(Br)cccc5n43)CC2)NC(=O)C2C[C@@H](O)CN2C(=O)[C@@H](NC(=O)C2(F)CC2)C(C)(C)C)cc1 (some centres not stated)
[2]
  DC50: 1 nM
[3]
  bioavailability: 22%

## Cc1sc2c(c1C)C(c1ccc(Cl)cc1)=N[C@@H](CC(=O)NCCCCNC(=O)CN1CCOc3cc(N(CCC#N)C(=O)CCl)ccc31)c1nnc(C)n1-2
[4]
  Emax: 94%
[5]
  DC50: 250 nM

## COC(=O)C[C@@H]1N=C(c2ccc(Cl)cc2)c2c(sc(C(=O)NCCCCCNc3ccc4c(c3)C(=O)N(C3CCC(=O)NC3=O)C4=O)c2C)-n2c(C)nnc21 (some centres not stated)
[6]
  DC50: 5 nM

## COc1cc(C(=O)NCCOCCOCCOCCNC(=O)C[C@@H]2N=C(c3ccc(Cl)cc3)c3c(sc(C)c3C)-n3c(C)nnc32)ccc1NC(=O)[C@@H]1N[C@@H](CC(C)(C)C)[C@](C#N)(c2ccc(Cl)cc2F)[C@H]1c1cccc(Cl)c1F
[7]
  Emax: 98%

## Cc1ncsc1-c1ccc([C@H](CCCCCN2CCC(c3ccc4c(c3)n(C3CCCC3)c3nc(=O)c5c(Br)cccc5n43)CC2)NC(=O)C2C[C@@H](O)CN2C(=O)[C@@H](NC(=O)C2(F)CC2)C(C)(C)C)cc1 (some centres not stated)
[2]
  DC50: 32 nM
[3]
  bioavailability: 3%

## Cc1ncsc1-c1ccc([C@H](C)NC(=O)[C@@H]2C[C@@H](O)CN2C(=O)[C@@H](NC(=O)CCCCCCC(=O)N2CCN(C[C@]3(C)CCC(c4ccc(Cl)cc4)=C(CN4CCN(c5ccc(C(=O)NS(=O)(=O)c6ccc(N[C@H](CCN7CCOCC7)CSc7ccccc7)c(S(=O)(=O)C(F)(F)F)c6)cc5)CC4)C3)CC2)C(C)(C)C)cc1
[8]
  DC50: 48 nM
[9]
  DC50: 6 nM

## CNc1nc(Nc2ccc(C(=O)N3CCN(CCCOc4cc(-c5scnc5C)ccc4CNC(=O)[C@H]4C[C@@H](O)CN4C(=O)[C@@H](NC(=O)C4(F)CC4)C(C)(C)C)CC3)cc2OC)ncc1Cl
[10]
  Activity: 60%

## Cc1sc2c(c1C)C(c1ccc(Cl)cc1)=N[C@H](CC(=O)Nc1cccc(OCCOCCOCCNc3cccc4nnn(C5CCC(=O)NC5=O)c(=O)c34)c1)c1nnc(C)n1-2 (some centres not stated)
[11]
  DC50: 0.32 nM

## CC(C)c1ccc(/C=C2\SC(=O)N(CCCCCCCCNC(=O)c3ccc4c(c3)C(=O)N(C3CCC(=O)NC3=O)C4=O)C2=O)cc1 (configuration not stated)
[12]
  DC50: 5000 nM
[13]
  DC50: ~10000 nM

## CNc1nc(Nc2ccc(C(=O)N3CCN(C[C@H]4CC[C@H](CSC(C)(C)[C@H](NC(=O)C5(F)CC5)C(=O)N5C[C@H](O)C[C@@H]5C(=O)NCc5ccc(-c6scnc6C)cc5)CC4)CC3)cc2OC)ncc1Cl
[14]
  Emax: 82%
[15]
  Cmax: 7700 ng/mL
[16]
  DC50: 14 nM
[17]
  Activity: 30%
[18]
  DC50: 32 nM
[10]
  Activity: 50%
[19]
  Tmax: 2 h
[20]
  Activity: 20%
[21]
  Tmax: 0.25 h
[22]
  Cmax: 3620 ng/mL
[23]
  Emax: 90%
[24]
  bioavailability: 15%

## Nc1ncnc2c1c(-c1ccc(Oc3ccccc3)cc1)nn2C1CCN(CCOCCOCC(=O)Nc2ccc3c(c2)C(=O)N(C2CCC(=O)NC2=O)C3=O)CC1 (configuration not stated)
[25]
  Emax: 99%

## COc1cc(OC)c(Cl)c(NC(=O)N(C)c2cc(Nc3ccc(N4CCN(CC(=O)N[C@H](C(=O)N5C[C@H](O)C[C@H]5C(=O)N[C@@H](C)c5ccc(-c6scnc6C)cc5)C(C)(C)C)CC4)cc3)ncn2)c1Cl
[26]
  Emax: 85%
[27]
  DC50: 4.35 nM

## CN[C@@H](C)C(=O)N[C@H](C(=O)N1CCC[C@H]1c1nc(C(=O)c2ccc(F)cc2)cs1)C1CCN(CCCC(=O)N2CCC[C@@H](n3nc(-c4ccc(Oc5ccc(F)cc5F)cc4)c(C(N)=O)c3N)C2)CC1
[28]
  DC50: 4700 nM

## COc1cc(N2CCC(N3CCN(C(=O)CCCCCCCCC(=O)N[C@H](C(=O)N4C[C@H](O)C[C@H]4C(=O)NCc4ccc(-c5scnc5C)cc4)C(C)(C)C)CC3)CC2)ccc1Nc1ncc(Cl)c(Nc2ccccc2P(C)(C)=O)n1
[29]
  DC50: 7.5 nM

## Cc1ncsc1-c1ccc(CNC(=O)[C@@H]2C[C@@H](O)CN2C(=O)[C@@H](NC(=O)C2(F)CC2)C(C)(C)C)c(OCCOc2ccc(CN3CCN(c4cc(-c5ccccc5O)nnc4N)CC3)cc2)c1
[30]
  DC50: 15.6 nM
[31]
  DC50: 32 nM
[32]
  DC50: 3.3 nM

## Cc1ncsc1-c1ccc(OCCCN2CCC(c3ccc4c(c3)n(C3CCCC3)c3nc(=O)c5c(Br)cccc5n43)CC2)c(CNC(=O)[C@@H]2C[C@@H](O)CN2C(=O)[C@@H](NC(=O)C2(F)CC2)C(C)(C)C)c1
[2]
  DC50: 78 nM
[33]
  Emax: 46%
